pEC50: −log10 of the molar value. Like-named read-outs stand apart in the source and are kept apart here.
System: recombinant NL-Rluc virus
Experiment: Inhibition of HIV replication (NL-RLuc luciferase reporter virus, MT-2 cells)
Format: cell-based
Details: for pEC50: read-out: Activity; for EC50: read-out: EC50 μM
[1] = Human immunodeficiency virus 1, MT2, 120 h

Compound `Cc1nc2cc(C(=O)NCCC3CCCCC3)nn2c(-c2cc(F)c3c(c2C)CCCO3)c1[C@H](OC(C)(C)C)C(=O)O` [Example 128, (2S)-2-(tert-butoxy)-2-(2-((2-cyclohexylethyl)carbamoyl)-7-(8-fluoro-5-methylchroman-6-yl)-5-methylpyrazolo[1,5-a]pyrimidin-6-yl)acetic acid] has a pEC50 [1] of over 7.00.

`Cc1nc2cc(C(=O)NCCC3CCOCC3)nn2c(-c2cc(F)c3c(c2C)CCCO3)c1[C@H](OC(C)(C)C)C(=O)O` [Example 129, (2S)-2-(tert-butoxy)-2-(7-(8-fluoro-5-methylchroman-6-yl)-5-methyl-2-((2-(tetrahydro-2H-pyran-4-yl)ethyl)carbamoyl)pyrazolo[1,5-a]pyrimidin-6-yl)acetic acid] was tested, and the pEC50 [1] was 6.00 to 7.00.

`Cc1nc2cc(C(=O)NCCC34C[C@H]5C[C@@H](C3)C[C@@H](C4)C5)nn2c(-c2cc(F)c3c(c2C)CCCO3)c1[C@H](OC(C)(C)C)C(=O)O` [Example 130] gave a pEC50 [1] of over 7.00.

In the case of `Cc1nc2cc(C(=O)NCCCC3CCCCC3)nn2c(-c2cc(F)c3c(c2C)CCCO3)c1[C@H](OC(C)(C)C)C(=O)O` [Example 131], the pEC50 [1] was over 7.00.

Compound `Cc1nc2cc(C(=O)NCCCC3CCOC3)nn2c(-c2cc(F)c3c(c2C)CCCO3)c1[C@H](OC(C)(C)C)C(=O)O` (stereo partly drawn) [Example 132, (2S)-2-(tert-butoxy)-2-(7-(8-fluoro-5-methylchroman-6-yl)-5-methyl-2-((3-(tetrahydrofuran-3-yl)propyl)carbamoyl)pyrazolo[1,5-a]pyrimidin-6-yl)acetic acid] has a pEC50 [1] of 6.00 to 7.00.

In the case of `CCCOCCNC(=O)c1cc2nc(C)c([C@H](OC(C)(C)C)C(=O)O)c(-c3cc(F)c4c(c3C)CCCO4)n2n1` [Example 133, (2S)-2-(tert-butoxy)-2-(7-(8-fluoro-5-methylchroman-6-yl)-5-methyl-2-((2-propoxyethyl)carbamoyl)pyrazolo[1,5-a]pyrimidin-6-yl)acetic acid], the pEC50 [1] was 6.00 to 7.00 and the EC50 [1] was 0.185 µM.

`Cc1nc2cc(C(=O)NCCC3(O)CCCC3)nn2c(-c2cc(F)c3c(c2C)CCCO3)c1[C@H](OC(C)(C)C)C(=O)O` [Example 134, (2S)-2-(tert-butoxy)-2-(7-(8-fluoro-5-methylchroman-6-yl)-2-((2-(1-hydroxycyclopentyl)ethyl)carbamoyl)-5-methylpyrazolo[1,5-a]pyrimidin-6-yl)acetic acid] was tested, and the pEC50 [1] was under 6.00.

For `Cc1nc2cc(C(=O)NCC34CC5C[C@H](C3)C(O)[C@H](C5)C4)nn2c(-c2cc(F)c3c(c2C)CCCO3)c1[C@H](OC(C)(C)C)C(=O)O` (stereo partly drawn) [Example 135, (2S)-2-(tert-butoxy)-2-(7-(8-fluoro-5-methylchroman-6-yl)-2-((((1R,3R,4S,5R,7S)-4-hydroxyadamantan-1-yl)methyl)carbamoyl)-5-methylpyrazolo[1,5-a]pyrimidin-6-yl)acetic acid], the pEC50 (NL-RLuc virus in MT-2 cells, 5 days of incubation, luciferase readout, serum condition not given) was 6.00 to 7.00.

`Cc1nc2cc(C(=O)NCCSC(C)(C)C)nn2c(-c2cc(F)c3c(c2C)CCCO3)c1[C@H](OC(C)(C)C)C(=O)O` [Example 136, (2S)-2-(tert-butoxy)-2-(2-((2-(tert-butylthio)ethyl)carbamoyl)-7-(8-fluoro-5-methylchroman-6-yl)-5-methylpyrazolo[1,5-a]pyrimidin-6-yl)acetic acid] was tested, and the pEC50 [1] was over 7.00.

`CNC(=O)c1cc2nc(C)c([C@H](OC(C)(C)C)C(=O)O)c(-c3cc(F)c4c(c3C)CCCO4)n2n1` [Example 137, (2S)-2-(tert-butoxy)-2-(7-(8-fluoro-5-methylchroman-6-yl)-5-methyl-2-(methylcarbamoyl)pyrazolo[1,5-a]pyrimidin-6-yl)acetic acid] gave a pEC50 [1] of under 6.00.

`Cc1cc(CNC(=O)c2nn3c(-c4cc(F)c5c(c4C)CCCO5)c([C@H](OC(C)(C)C)C(=O)O)c(C)nc3c2F)ccc1F` [Example 139, (2S)-2-(tert-Butoxy)-2-(3-fluoro-2-((4-fluoro-3-methylbenzyl)carbamoyl)-7-(8-fluoro-5-methylchroman-6-yl)-5-methylpyrazolo[1,5-a]pyrimidin-6-yl)acetic acid] gave a pEC50 [1] of over 7.00.

Work on `Cc1cc(CNC(=O)c2nn3c(-c4cc(F)c5c(c4C)CCCO5)c([C@H](OC(C)(C)C)C(=O)O)c(C)nc3c2Cl)ccc1F` [Example 140, (2S)-2-(tert-Butoxy)-2-(3-chloro-2-((4-fluoro-3-methylbenzyl)carbamoyl)-7-(8-fluoro-5-methylchroman-6-yl)-5-methylpyrazolo[1,5-a]pyrimidin-6-yl)acetic acid] yielded a pEC50 [1] of over 7.00.

In the case of `Cc1cc(CNC(=O)c2cc3nc(C)c([C@H](OC(C)(C)C)C(=O)O)c(-c4ccc5c(c4Cl)NCCO5)n3n2)ccc1F` [Example 141, (2S)-2-(tert-Butoxy)-2-(7-(5-chloro-3,4-dihydro-2H-benzo[b][1,4]oxazin-6-yl)-2-((4-fluoro-3-methylbenzyl)carbamoyl)-5-methylpyrazolo[1,5-a]pyrimidin-6-yl)acetic acid], the pEC50 [1] was 6.00 to 7.00 and the EC50 [1] was 0.114 µM.

For `CCCCCc1ccccc1CNC(=O)c1cc2nc(C)c([C@H](OC(C)(C)C)C(=O)O)c(-c3ccc4c(c3Cl)NCCO4)n2n1` [Example 142, (2S)-2-(tert-Butoxy)-2-(7-(5-chloro-3,4-dihydro-2H-benzo[b][1,4]oxazin-6-yl)-5-methyl-2-((2-pentylbenzyl)carbamoyl)pyrazolo[1,5-a]pyrimidin-6-yl)acetic acid], the pEC50 [1] was over 7.00.

Work on `CCCCOc1cc(F)ccc1CNC(=O)c1cc2nc(C)c([C@H](OC(C)(C)C)C(=O)O)c(-c3ccc4c(c3Cl)NCCO4)n2n1` [Example 143, (2S)-2-(tert-Butoxy)-2-(2-((2-butoxy-4-fluorobenzyl)carbamoyl)-7-(5-chloro-3,4-dihydro-2H-benzo[b][1,4]oxazin-6-yl)-5-methylpyrazolo[1,5-a]pyrimidin-6-yl)acetic acid] yielded a pEC50 [1] of over 7.00 and an EC50 [1] of 0.028 µM.

`Cc1nc2cc(C(=O)NCCC(C)(C)C)nn2c(-c2ccc3c(c2Cl)NCCO3)c1[C@H](OC(C)(C)C)C(=O)O` [Example 144, (2S)-2-(tert-Butoxy)-2-(7-(5-chloro-3,4-dihydro-2H-benzo[b][1,4]oxazin-6-yl)-2-((3,3-dimethylbutyl)carbamoyl)-5-methylpyrazolo[1,5-a]pyrimidin-6-yl)acetic acid] was tested, and the pEC50 [1] was 6.00 to 7.00 and the EC50 [1] was 0.122 µM.

In the case of `Cc1cc(CNC(=O)c2cc3nc(C)c([C@H](OC(C)(C)C)C(=O)O)c(-c4cc5c(cc4F)OCCN5)n3n2)ccc1F` [Example 145, (2S)-2-(tert-Butoxy)-2-(7-(7-fluoro-3,4-dihydro-2H-benzo[b][1,4]oxazin-6-yl)-2-((4-fluoro-3-methylbenzyl)carbamoyl)-5-methylpyrazolo[1,5-a]pyrimidin-6-yl)acetic acid], the pEC50 [1] was over 7.00.

`Cc1nc2cc(C(=O)NCCC(C)(C)C)nn2c(-c2cc3c(cc2F)OCCN3)c1[C@H](OC(C)(C)C)C(=O)O` [Example 146, (2S)-2-(tert-Butoxy)-2-(2-((3,3-dimethylbutyl)carbamoyl)-7-(7-fluoro-3,4-dihydro-2H-benzo[b][1,4]oxazin-6-yl)-5-methylpyrazolo[1,5-a]pyrimidin-6-yl)acetic acid] gave a pEC50 [1] of over 7.00.

In the case of `Cc1cc(CNC(=O)c2cc3nc(C)c([C@H](OC(C)(C)C)C(=O)O)c(C4=CCC(C)(C)CC4)n3n2)ccc1F` [Example 147, (S)-2-(tert-butoxy)-2-(7-(4,4-dimethylcyclohex-1-en-1-yl)-2-((4-fluoro-3-methylbenzyl)carbamoyl)-5-methylpyrazolo[1,5-a]pyrimidin-6-yl)acetic acid], the pEC50 [1] was over 7.00.

In the case of `Cc1nc2cc(C(=O)NCCC(C)(C)C)nn2c(C2=CCC(C)(C)CC2)c1[C@H](OC(C)(C)C)C(=O)O` [Example 148, (S)-2-(tert-Butoxy)-2-(2-((3,3-dimethylbutyl)carbamoyl)-7-(4,4-dimethylcyclohex-1-en-1-yl)-5-methylpyrazolo[1,5-a]pyrimidin-6-yl)acetic acid], the pEC50 [1] was over 7.00.

With `Cc1cc(CNC(=O)c2cc3nc(C)c([C@H](OC(C)(C)C)C(=O)O)c(/C=C/CC(C)C)n3n2)ccc1F` [Example 149, (S,E)-2-(tert-Butoxy)-2-(2-((4-fluoro-3-methylbenzyl)carbamoyl)-5-methyl-7-(4-methylpent-1-en-1-yl)pyrazolo[1,5-a]pyrimidin-6-yl)acetic acid] the pEC50 [1] was under 6.00.

`Cc1nc2cc(C(=O)NCCC(C)(C)C)nn2c(/C=C/CC(C)C)c1[C@H](OC(C)(C)C)C(=O)O` [Example 150, (S,E)-2-(tert-Butoxy)-2-(2-((3,3-dimethylbutyl)carbamoyl)-5-methyl-7-(4-methylpent-1-en-1-yl)pyrazolo[1,5-a]pyrimidin-6-yl)acetic acid] was tested, and the pEC50 [1] was under 6.00 and the EC50 [1] was 1.2 µM.

`Cc1cc(CNC(=O)c2cc3nc(C)c([C@H](OC(C)(C)C)C(=O)O)c(N4CCC(C)(C)CC4)n3n2)ccc1F` [Example 151, (S)-2-(tert-Butoxy)-2-(7-(4,4-dimethylpiperidin-1-yl)-2-((4-fluoro-3-methylbenzyl)carbamoyl)-5-methylpyrazolo[1,5-a]pyrimidin-6-yl)acetic acid] showed a pEC50 [1] of over 7.00.

`Cc1nc2cc(C(=O)NCCC(C)(C)C)nn2c(N2CCC(C)(C)CC2)c1[C@H](OC(C)(C)C)C(=O)O` [Example 152, (S)-2-(tert-Butoxy)-2-(2-((3,3-dimethylbutyl)carbamoyl)-7-(4,4-dimethylpiperidin-1-yl)-5-methylpyrazolo[1,5-a]pyrimidin-6-yl)acetic acid] was tested, and the pEC50 [1] was over 7.00 and the EC50 [1] was 0.03 µM.
